Values quoted from earlier work, collected in patent US11730747B2, “Drink product and use thereof” (HYGIA PHARMACEUTICALS, LLC, priority 2013, dated 2023).

What was measured:
[1] = system: human colon cancer cell lines
[2] = system: JB6 cells; conditions: IP6 0.5-2 mM, three-dimensional growth in soft agar
[3] = system: large intestinal cancer; conditions: rats; treatment begun 5 months after carcinogenic induction with azoxymethane
[4] = system: PC-3; conditions: PC-3 cells
[5] = system: bronchial dysplasia; conditions: smokers
[6] = system: PI3K; conditions: lung adenocarcinoma cell line
[7] = system: pulmonary adenomas; conditions: diet containing 3% myo-inositol, fed beginning 1 week after exposure to benzo[a]pyrene

In the case of `O=P(O)(O)O[C@H]1[C@H](OP(=O)(O)O)[C@@H](OP(=O)(O)O)[C@H](OP(=O)(O)O)[C@@H](OP(=O)(O)O)[C@H]1OP(=O)(O)O` [IP6, inositol-1,2,3,4,5,6-hexakisphosphate], the “growth of human colon cancer cell lines in vitro” value [1] is listed as “inhibits growth”, the “inhibition of EGF or TPA-induced cell transformation” value [2] is listed as “dose-dependent inhibition” and the large intestinal cancers [3] is listed as “significantly (p=0.02) reducing”. For the same compound, the “levels of integrin linked kinase 1 (ILK1) and cyclin D1” value [4] was “strong decrease”, the “levels of phosphorylated AKT and GSK3α/β” value [4] was “reduced levels” and the “phosphorylation levels of the p85 subunit of PI3K at Tyr458 and phosphoinositide-dependent kinase-1 at Ser241” value [4] was “reduced phosphorylation levels”.

In the case of `O[C@H]1[C@H](O)[C@@H](O)[C@H](O)[C@@H](O)[C@H]1O` [myoinositol], the “reduction in the systolic and diastolic blood pressures (average)” value ([5]; 18 grams per day for 3 months) is given as 10 mm Hg, the “rate of regression of preexisting dysplastic lesions” value ([5]; 18 grams per day for 3 months, versus 48%, P=0.014) is given as 91% and the maximum tolerated dose ([5]; oral administration, dose escalation study for one month) is given as 18 grams per day. For the same compound, the side effects ([5]; oral myo-inositol) was “mild and mainly gastrointestinal in nature”, the PI3K activity [6] was “dose-dependent decreases” and the EC50 ([6]; read-out: median effective concentration (ECs) for PI3K inhibition) was 73 nM. The “reduction of the number of pulmonary adenomas” value [7] was 40%.
